Data from the supplement of paper PMC10307832.

Assays:
Assay in all cases: relative viability (nuclei count vs DMSO), 5 days (fraction); higher = more cells survive
AZD8055 + Phenformin = compound: COc1ccc(-c2ccc3c(N4CCOC[C@@H]4C)nc(N4CCOC[C@@H]4C)nc3n2)cc1CO [AZD8055] + N=C(N)NC(=N)NCCc1ccccc1 [Phenformin] (partner 250 µM)
Procedure, shortened: (§1)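 Relative viability equals treated-well nuclei counts divided by vehicle-well nuclei counts. Counts came from 4× images of lung cancer cell lines grown in 1536-well plates for 5 days after pin-tool dosing on the day after seeding. Dosing used one drug alone or a fixed anchor-drug dose plus five library-drug doses (not always all listed) in √10 steps, and values are medians of duplicate plates.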

AZD8055 + Pictilisib = compound: COc1ccc(-c2ccc3c(N4CCOC[C@@H]4C)nc(N4CCOC[C@@H]4C)nc3n2)cc1CO [AZD8055] + CS(=O)(=O)N1CCN(Cc2cc3nc(-c4cccc5[nH]ncc45)nc(N4CCOCC4)c3s2)CC1 [Pictilisib] (partner 1 µM)
Procedure, shortened: as §1

AZD8055 + Decitabine = compound: COc1ccc(-c2ccc3c(N4CCOC[C@@H]4C)nc(N4CCOC[C@@H]4C)nc3n2)cc1CO [AZD8055] + Nc1ncn([C@H]2C[C@H](O)[C@@H](CO)O2)c(=O)n1 [Decitabine] (partner 2 µM)
Procedure, shortened: as §1

AZD8055 + Palbociclib = compound: COc1ccc(-c2ccc3c(N4CCOC[C@@H]4C)nc(N4CCOC[C@@H]4C)nc3n2)cc1CO [AZD8055] + CC(=O)c1c(C)c2cnc(Nc3ccc(N4CCNCC4)cn3)nc2n(C2CCCC2)c1=O [Palbociclib] (partner 0.5 µM)
Procedure, shortened: as §1

| Cell Line | relative viability (AZD8055 + Phenformin; first compound 0.01 µM) | relative viability (AZD8055 + Phenformin; first compound 0.03162 µM) | relative viability (AZD8055 + Phenformin; first compound 0.1 µM) | relative viability (AZD8055 + Phenformin; first compound 0.3162 µM) | relative viability (AZD8055 + Phenformin; first compound 1 µM) | relative viability (AZD8055 + Pictilisib; first compound 0.01 µM) | relative viability (AZD8055 + Pictilisib; first compound 0.03162 µM) | relative viability (AZD8055 + Pictilisib; first compound 0.1 µM) | relative viability (AZD8055 + Pictilisib; first compound 0.3162 µM) | relative viability (AZD8055 + Pictilisib; first compound 1 µM) | relative viability (AZD8055 + Decitabine; first compound 0.01 µM) | relative viability (AZD8055 + Decitabine; first compound 0.03162 µM) | relative viability (AZD8055 + Decitabine; first compound 0.1 µM) | relative viability (AZD8055 + Decitabine; first compound 0.3162 µM) | relative viability (AZD8055 + Decitabine; first compound 1 µM) | relative viability (AZD8055 + Palbociclib; first compound 0.01 µM) | relative viability (AZD8055 + Palbociclib; first compound 0.03162 µM) | relative viability (AZD8055 + Palbociclib; first compound 0.1 µM) | relative viability (AZD8055 + Palbociclib; first compound 0.3162 µM) | relative viability (AZD8055 + Palbociclib; first compound 1 µM) |
| --- | --- | --- | --- | --- | --- | --- | --- | --- | --- | --- | --- | --- | --- | --- | --- | --- | --- | --- | --- | --- |
| LCLC-103H | 0.307 | 0.291 | 0.268 | 0.206 | 0.224 | 0.612 | 0.572 | 0.546 | 0.52 | 0.332 | 0.767 | 0.616 | 0.532 | 0.417 | 0.374 | 0.52 | 0.48 | 0.398 | 0.468 | 0.421 |
| NCI-H441 | 0.767 | 0.574 | 0.628 | 0.27 | 0.343 | 0.518 | 0.483 | 0.375 | 0.215 | 0.267 | 0.284 | 0.233 | 0.225 | 0.206 | 0.246 | 0.178 | 0.185 | 0.179 | 0.144 | 0.14 |
| SK-LU-1 | 0.526 | 0.436 | 0.288 | 0.247 | 0.226 | 0.525 | 0.395 | 0.327 | 0.28 | 0.298 | 0.64 | 0.547 | 0.568 | 0.422 | 0.343 | 0.401 | 0.32 | 0.288 | 0.299 | 0.261 |
| BEN | 0.293 | 0.26 | 0.292 | 0.242 | 0.228 | 0.541 | 0.391 | 0.34 | 0.316 | 0.254 | 0.691 | 0.63 | 0.435 | 0.49 | 0.453 | 0.485 | 0.472 | 0.436 | 0.475 | 0.413 |
| LC-2-ad | 0.549 | 0.564 | 0.538 | 0.336 | 0.362 | 0.464 | 0.458 | 0.322 | 0.339 | 0.255 | 0.911 | 0.729 | 0.788 | 0.835 | 0.67 | 0.534 | 0.471 | 0.438 | 0.388 | 0.312 |
| COR-L23 | 0.485 | 0.373 | 0.341 | 0.213 | 0.157 | 0.95 | 0.478 | 0.35 | 0.16 | 0.17 | 0.401 | 0.298 | 0.305 | 0.209 | 0.191 | 0.319 | 0.226 | 0.199 | 0.126 | 0.124 |
| NCI-H1650 | 0.534 | 0.518 | 0.383 | 0.288 | 0.266 | 0.551 | 0.575 | 0.479 | 0.393 | 0.36 | 0.535 | 0.432 | 0.439 | 0.384 | 0.358 | 0.317 | 0.323 | 0.254 | 0.18 | 0.205 |
| RERF-LC-KJ | 0.374 | 0.378 | 0.383 | 0.303 | 0.303 | 0.566 | 0.452 | 0.426 | 0.309 | 0.289 | 0.589 | 0.68 | 0.666 | 0.383 | 0.395 | 1.11 | 1.09 | 0.779 | 0.441 | 0.412 |
| NCI-H1915 | 0.373 | 0.348 | 0.356 | 0.364 | 0.302 | 0.879 | 0.715 | 0.851 | 0.706 | 0.487 | 0.272 | 0.251 | 0.258 | 0.254 | 0.244 | 0.491 | 0.44 | 0.425 | 0.282 | 0.203 |
| NCI-H2009 | 0.508 | 0.455 | 0.486 | 0.294 | 0.228 | 0.762 | 0.441 | 0.561 | 0.343 | 0.333 | 0.376 | 0.451 | 0.376 | 0.305 | 0.268 | 0.227 | 0.156 | 0.203 | 0.178 | 0.149 |
| NCI-H2126 | 0.488 | 0.503 | 0.438 | 0.349 | 0.379 | 0.478 | 0.52 | 0.385 | 0.362 | 0.415 | 0.623 | 0.499 | 0.485 | 0.434 | 0.331 | 0.323 | 0.329 | 0.362 | 0.284 | 0.323 |
| LXF-289 | 0.539 | 0.534 | 0.508 | 0.458 | 0.385 | 0.83 | 0.673 | 0.556 | 0.411 | 0.454 | 0.397 | 0.317 | 0.369 | 0.343 | 0.356 | 0.621 | 0.581 | 0.578 | 0.3 | 0.23 |
| HCC-44 | 0.216 | 0.197 | 0.132 | 0.158 | 0.128 | 0.447 | 0.396 | 0.376 | 0.267 | 0.347 | 0.971 | 0.849 | 0.812 | 0.8 | 0.735 | 0.949 | 0.936 | 0.949 | 0.925 | 0.867 |
| PC-14 | 0.857 | 0.595 | 0.284 | 0.216 | 0.167 | 0.587 | 0.452 | 0.294 | 0.184 | 0.113 | 0.288 | 0.227 | 0.238 | 0.186 | 0.159 | 0.698 | 0.589 | 0.255 | 0.108 | 0.12 |
| HOP-62 | 0.717 | 0.628 | 0.585 | 0.462 | 0.294 | 0.878 | 0.534 | 0.582 | 0.246 | 0.259 | 0.193 | 0.213 | 0.239 | 0.215 | 0.194 | 0.428 | 0.441 | 0.414 | 0.171 | 0.172 |
| NCI-H358 | 0.362 | 0.387 | 0.294 | 0.151 | 0.121 | 0.334 | 0.301 | 0.233 | 0.222 | 0.245 | 0.22 | 0.24 | 0.177 | 0.134 | 0.113 | 0.143 | 0.137 | 0.135 | 0.115 | 0.101 |
